# Laboratory results: US20220031710A1, “USE OF ERK5 INHIBITORS FOR TREATING GLIOMAS IN PEDIATRIC SUBJECTS” (UNIVERSITY OF PITTSBURGH - OF THE COMMONWEALTH SYSTEM OF …, priority 2019, published 2022)
# Assays:
# CNMC-XD-760 = assay: Alamar blue viability EC50 in H3 wildtype DIPG cell line; type: cell-based, human; conditions: CNMC-XD-760 (DIPG histone wildtype H3) compared to H3 mutant DIPG cells and hemispheric pGBM cells; 96 h
# Description: Direct cell counts were performed using the Countess II FL Automated Cell Counter (ThermoFisher Scientific). Alamar blue viability (ThermoFisher Scientific) and the 5-bromo-2′-deoxyuridine (BrdU) incorporated cell proliferation assay (Cell Signaling Technology Cat #6813) were performed using the manufacturer's standard protocol. EC50 curve analysis was performed using raw fluorescent Alamar blue values that were inputted into PRISM 7.0. Drug concentrations were log 10 transformed and values normalized to percent viability with respect to vehicle treated cells. EC50 values were interpolated from a log inhibitor vs. normalized response with variable slope using a least square fit model.
# [1] = tested on: DIPG-007, DIPG-IV, SF8628 and DIPG-13p cells; assay: Annexin-PI flow cytometry apoptosis assay; type: cell-based, human; conditions: for populations in early apoptosis, late apoptosis and necrosis / viable cells (Annexin negative, PI negative): 48 h, vs DMSO vehicle
# Description: Apoptosis was quantified using the Pacific Blue Annexin V Apoptosis Detection Kit with propidium iodide (BioLegend, San Diego, Calif. Cat #640926). Analysis was performed at the Flow Cytometry Core, Rangos Research Center, UPMC Children's Hospital of Pittsburgh.
# DIPG-IV cells = assay: EC50 of ERK5-IN-1 in DIPG-IV cells expressing ERK5-HA, ERK5-HA T733E or MYC S62D; type: cell-based, human
# Description: Wildtype human H3F3A cDNA was ligated with a puromycin selection marker and a self-cleaving T2A sequence using Gibson Assembly Cloning and cloned into pLV with an EF1a promoter. HA-RASAL1 (NM_001193520.1) with an N-terminal HA tag, MYC (NM_002467.4), or MAPK7 (ERK5, NM_139033) were ligated with T2A mCherry and cloned into pLV under the control of the EF1a promoter. Cloning and plasmid sequence validation were performed by VectorBuilder Services (Santa Clara, Calif. 95050). Site-directed mutagenesis was performed to generate H3F3A K27M, H3F3A G34R, MYC S62D, and ERK5 mutant constructs using the QuikChange II Site-Directed Mutagenesis Kit and manufacturer's protocol (Agilent, Cat #200523, Santa Clara, Calif. 95051). Lentiviral ERK5 GIPZ shRNA plasmids were purchased from Dharmacon (Lafayette, Colo. 80026, Cat #RHS4531-EG5598 glycerol set: V2LHS 202701, V3LHS_366737, V3LHS_366738, V3LHS_366740, V3LHS_640828, V3LHS_640830).
# Direct cell counts were performed using the Countess II FL Automated Cell Counter (ThermoFisher Scientific). Alamar blue viability (ThermoFisher Scientific) and the 5-bromo-2′-deoxyuridine (BrdU) incorporated cell proliferation assay (Cell Signaling Technology Cat #6813) were performed using the manufacturer's standard protocol. EC50 curve analysis was performed using raw fluorescent Alamar blue values that were inputted into PRISM 7.0. […]
# MYC = assay: Western blot of phospho MYC S62 and total MYC in DIPG cells; type: cell-based, human; conditions: DIPG-IV and SF8628 cells; 500 nM
# Description: (§1) Cell pellets were lysed in PLC lysis buffer containing protease and phosphatase inhibitors (Roche Inc.). Protein lysates were quantified using the bicinchoninic acid (BCA) assay (Pierce Chemical Co., Rockford, Ill.). 30 μg of total protein lysate was loaded in 10% SDS-PAGE gels and electrophoresed. Proteins were transferred to PVDF membranes using a semi-dry transfer apparatus (Bio-Rad). Membranes were blocked for one hour and probed for various proteins overnight in 5% non-fat milk or 5% BSA in Tris Buffered Saline Solution, 0.5% Tween-20 (TBST) or Phosphate Buffered Saline Solution with 0.5% Tween-20 (PBST). Membranes were washed for 5 mins in TBST (3×) and incubated with horseradish peroxidase-conjugated antibodies specific for the primary antibody (BioRad Laboratories, Inc., CA, USA). Binding was detected using Chemiluminescence Reagent Plus (PerkinElmer Inc., MA, USA).
# DIPG-13p cells xenograft = assay: DIPG-13p orthotopic xenograft model; type: in vivo, mice; conditions: 50 mg/kg, 2 cycles of 5 days on 2 days off; DIPG-13p xenograft
# Description: Paraffin embedded blocks were cut in 5 μm sections. Slides were processed as follows: de-waxed in xylene followed by rehydration in a standard alcohol series. Antigen retrieval was by pressure cooking for 20 minutes in citrate buffer (pH 6.0), followed by blocking of endogenous peroxidase in 3% H2O2. The antibodies were added and incubated overnight at 4° C. Antibodies were detected using a secondary-HRP labeled mouse or rabbit antibody detection system (Dako EnVision+ System-HRP cat #k4401, cat #k4403) followed by addition 3,3′-Diaminobenzidine (DAB) chromagen (Vector Labs) for visualization. Sections were counter-stained with hematoxylin (Fisher Scientific Inc., Canada) and slides dehydrated in 70, 80, and 100% ethanol and xylene. Slides were cover slipped and mounted in Permount (Fisher Scientific Inc.). Antibodies and concentrations for IHC are as follows: Ki67 (1:100, Dako, cat #F7268). All images were captured on a Leica DM 100 microscope using Leica Application Suite Software (Switzerland, Version 3.8.0).
# All animal procedures were carried out ethically according to animal user protocols approved by Institutional Animal Care Committee (IACUC). 4-6 week-old non-obese diabetic severe combined immune deficiency male or female mice (NOD-SCID-Prkdc^scid) were injected with 1×10^5 SU-DIPG-13p cells or 1×10^5 SF8628 DIPG cells. […]
# ERK5 = ERK5 (Homo sapiens, UniProt Q13164); assay: Western blot of ERK5 phosphorylation sites in DIPG cells; type: cell-based; parameters: endogenous in cells; host or cells: DIPG-007 and DIPG-IV cells; conditions: DIPG-007 and DIPG-IV cells
# Sequence of ERK5 (Q13164 whole entry): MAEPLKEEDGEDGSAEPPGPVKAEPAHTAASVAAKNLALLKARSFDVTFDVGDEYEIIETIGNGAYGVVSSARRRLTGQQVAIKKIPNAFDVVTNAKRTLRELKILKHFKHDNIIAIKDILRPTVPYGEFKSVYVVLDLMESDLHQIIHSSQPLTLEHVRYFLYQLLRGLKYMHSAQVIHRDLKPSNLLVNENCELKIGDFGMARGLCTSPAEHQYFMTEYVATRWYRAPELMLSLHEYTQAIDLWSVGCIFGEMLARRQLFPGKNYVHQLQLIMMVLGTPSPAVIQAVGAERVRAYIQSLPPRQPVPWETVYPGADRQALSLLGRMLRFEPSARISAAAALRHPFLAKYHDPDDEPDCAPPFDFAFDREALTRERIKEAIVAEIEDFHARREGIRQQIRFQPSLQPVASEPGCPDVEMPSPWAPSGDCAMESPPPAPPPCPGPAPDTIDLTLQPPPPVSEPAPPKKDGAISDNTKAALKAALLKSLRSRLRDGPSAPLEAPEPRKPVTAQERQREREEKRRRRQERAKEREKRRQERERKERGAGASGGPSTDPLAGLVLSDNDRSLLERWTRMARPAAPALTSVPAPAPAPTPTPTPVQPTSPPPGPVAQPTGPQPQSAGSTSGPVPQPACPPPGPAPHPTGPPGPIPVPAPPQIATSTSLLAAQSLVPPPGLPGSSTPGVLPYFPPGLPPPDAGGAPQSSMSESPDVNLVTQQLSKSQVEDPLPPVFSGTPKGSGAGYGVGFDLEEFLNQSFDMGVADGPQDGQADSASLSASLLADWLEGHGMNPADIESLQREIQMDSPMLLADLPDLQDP
# Description: as §1
smiles,measurement,setting,value
"CCOc1cc(C(=O)N2CCC(N3CCN(C)CC3)CC2)ccc1Nc1ncc2c(n1)N(C1CCCC1)c1ccccc1C(=O)N2C [ERK5-IN-1, 11-cyclopentyl-2-[[2-ethoxy-4-[[4-(4-methyl-1-piperazinyl)-1-piperidinyl]carbonyl]phenyl]amino]-5,11-dihydro-5-methyl-6H-pyrimido[4,5b][1,4]benzodiazepin-6-one]",EC50 values for ERK5-IN-1,CNMC-XD-760,highest EC50 values
same,"populations in early apoptosis, late apoptosis and necrosis",[1]; DIPG-007 and DIPG-IV cells,increased
same,"viable cells (Annexin negative, PI negative)",[1]; DIPG-007 and DIPG-IV cells,decreased
same,"populations in early apoptosis, late apoptosis and necrosis",[1]; SF8628 and DIPG-13p cells,increased
same,"viable cells (Annexin negative, PI negative)",[1]; SF8628 and DIPG-13p cells,decreased
same,rates of apoptosis,"[1]; DIPG-007 and DIPG-IV cells, compared to controls",significantly higher rates of apoptosis
same,apoptosis,[1]; DIPG-13p and SF8628 cells,induction of apoptosis
same,resistance to ERK5-IN-1 (EC50 values),DIPG-IV cells; DIPG-IV cells expressing MYC S62D vs empty vector control,promoted resistance
same,EC50 values,DIPG-IV cells; DIPG-IV cells expressing wild-type HA-tagged ERK5 or constitutively active ERK5 T733E vs empty vector,increased EC50 values
same,phospho and total MYC,MYC,reduced
same,median survival,DIPG-13p cells xenograft,30 days
same,ERK5 Thr218/Tyr220 phosphorylation (regulated by MEK5),ERK5,did not inhibit
same,ERK5 auto-phosphorylation and ERK5 activity sites (Ser731 and Thr733),ERK5; at 100 nM,inhibit
